Data from patent US9682941B2, “Substituted biphenyl analogues as dual inhibitors of aromatase and sulfatase” (ESTRYX PHARMA LIMITED, priority 2013, dated 2017).

What was measured:
aromatase = target: T1, aromatase (Homo sapiens, UniProt P11511); experiment: Aromatase inhibition assay in JEG-3 cells ([1β-3H] androstenedione, tritiated water release); type: cell-based; settings: 1.25 hour incubation, duplicate
T1 construct: JEG-3 which constitutively expresses high amount of aromatase and steroid sulfatase; endogenous in cells; host or cells: JEG-3
T1 sequence (P11511 1-503): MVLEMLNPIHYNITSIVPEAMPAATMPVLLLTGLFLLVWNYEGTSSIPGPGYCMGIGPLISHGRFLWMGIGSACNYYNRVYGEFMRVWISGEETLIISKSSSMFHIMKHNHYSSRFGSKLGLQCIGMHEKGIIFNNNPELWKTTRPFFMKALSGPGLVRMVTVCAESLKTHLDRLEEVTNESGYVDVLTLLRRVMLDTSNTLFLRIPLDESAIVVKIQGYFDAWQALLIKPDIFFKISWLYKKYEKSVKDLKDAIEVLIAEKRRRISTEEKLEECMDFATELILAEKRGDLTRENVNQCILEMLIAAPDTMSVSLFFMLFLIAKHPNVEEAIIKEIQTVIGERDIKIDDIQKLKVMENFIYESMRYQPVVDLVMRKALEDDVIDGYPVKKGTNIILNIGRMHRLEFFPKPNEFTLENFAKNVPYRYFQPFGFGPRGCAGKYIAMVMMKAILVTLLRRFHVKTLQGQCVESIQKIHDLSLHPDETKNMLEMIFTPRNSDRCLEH
Experimental: (§1) Aromatase and steroid sulfatase enzymes inhibitions were evaluated in the human chorionic carcinoma cell line JEG-3 which constitutively expresses high amount of aromatase and steroid sulfatase.
For aromatase inhibition assay, JEG-3 cells were seeded into 96-well plates at 35,000 cells/well and maintained in MEM containing supplements. When reaching 80% confluent, the cells were washed once with serum-free MEM, incubated with [1β-^3H] androstenedione (A4, 0.2 μCi/ml) for 1.25 hour in the presence of the test substances added in a concentration series. The product, tritiated water (^3H2O), was separated using 2.5% (w/v) dextran-coated charcoal at 4-8° C. for 2 hours. The supernatant radioactivity was measured by a MicroBeta scintillation counter.
(§2) Experiments are performed in duplicate. The inhibitory concentration of 50% of the enzymatic activity is calculated.

steroid sulfatase = target: T2, steroid sulfatase (Homo sapiens, UniProt P08842); experiment: Steroid sulfatase (STS) inhibition assay in JEG-3 cells ([6,7-3H] estrone sulfate); type: cell-based; settings: 1 hour at 37° C., duplicate
T2 construct: JEG-3 which constitutively expresses high amount of aromatase and steroid sulfatase; endogenous in cells; host or cells: JEG-3
T2 sequence (P08842 22-583): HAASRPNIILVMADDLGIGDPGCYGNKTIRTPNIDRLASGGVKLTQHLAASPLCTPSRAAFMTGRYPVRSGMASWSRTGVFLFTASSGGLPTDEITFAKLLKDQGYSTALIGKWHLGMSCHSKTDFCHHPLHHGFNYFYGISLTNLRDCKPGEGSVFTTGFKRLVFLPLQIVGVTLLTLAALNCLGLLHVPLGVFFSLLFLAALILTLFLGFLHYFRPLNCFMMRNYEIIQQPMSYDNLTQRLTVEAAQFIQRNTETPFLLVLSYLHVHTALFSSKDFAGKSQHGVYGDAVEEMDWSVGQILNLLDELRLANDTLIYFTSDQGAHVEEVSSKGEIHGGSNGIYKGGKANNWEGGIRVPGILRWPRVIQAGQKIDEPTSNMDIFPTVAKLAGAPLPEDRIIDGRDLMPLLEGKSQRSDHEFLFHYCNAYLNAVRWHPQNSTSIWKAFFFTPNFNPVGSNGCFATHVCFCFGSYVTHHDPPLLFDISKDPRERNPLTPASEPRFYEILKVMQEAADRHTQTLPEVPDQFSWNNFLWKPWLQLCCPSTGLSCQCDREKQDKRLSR
Experimental: as §1
For STS assay, JEG-3 cells were seeded into 24-well culture plates at 150,000 cells/ml/well and maintained in MEM containing supplements overnight. When reaching 80% confluent, the cells were washed once with serum-free MEM, loaded with 1 ml of substrate mix containing [6,7-3H] Estrone sulfate (E1S, 0.6 μCi/ml) and [4-14C] Estrone (E1, 4 nCi/ml) in the presence of compounds in a concentration series, and incubated for 1 hour at 37° C. The product [3H]E1 was separated from E1S by toluene partition using [4-14C]E1 to monitor extraction procedural losses, and the toluene fraction radioactivity was measured by a MicroBeta scintillation counter.
as §2

| Structure (SMILES) | IC50 (aromatase) | IC50 (steroid sulfatase) |
| --- | --- | --- |
| CN(c1ccc(C#N)c(-c2ccc(OS(N)(=O)=O)cc2)n1)n1cnc2ccccc21 [Example 23, 4-(6-((1H-Benzo[d]imidazol-1-yl)(methyl)amino)-3-cyanopyridin-2-yl)phenyl sulfamate] | 6.5 nM | 7.1 nM |
| N#Cc1cnc(Cn2cnc3cccnc32)nc1-c1ccc(OS(N)(=O)=O)cc1 [Example 25, 4-(2-((3H-Imidazo[4,5-b]pyridin-3-yl)methyl)-5-cyanopyrimidin-4-yl)phenyl sulfamate] | 6.2 nM | 10.7 nM |
| CN(c1cc(-c2ccc(OS(N)(=O)=O)cc2)c(C#N)cn1)n1cnc2ccccc21 [Example 29, 4-(2-((1H-Benzo[d]imidazol-1-yl)(methyl)amino)-5-cyanopyridin-4-yl)phenyl sulfamate] | 2.5 nM | 37.6 nM |
| N#Cc1ncc(Nn2cnc3ccccc32)nc1-c1ccc(OS(N)(=O)=O)cc1 [Example 32, 4-(6-(1H-Benzo[d]imidazol-1-ylamino)-3-cyanopyrazin-2-yl)phenyl sulfamate] | 37.6 nM | 19.5 nM |
| CN(c1cnc(C#N)c(-c2ccc(OS(N)(=O)=O)cc2)n1)n1cnc2ccccc21 [Example 34, 4-(6-((1H-Benzo[d]imidazol-1-yl)(methyl)amino)-3-cyanopyrazin-2-yl)phenyl sulfamate] | 8.4 nM | 35.7 nM |
| N#Cc1ccc(Nn2nnc3cccnc32)cc1-c1ccc(OS(N)(=O)=O)cc1 [Example 35, 5′-(3H-[1,2,3]Triazolo[4,5-b]pyridin-3-ylamino)-2′-cyano-[1,1′-biphenyl]-4-yl sulfamate] | 5.1 nM | 29.4 nM |
| N#Cc1ncc(Nn2cnc3ccccc32)cc1-c1ccc(OS(N)(=O)=O)cc1 [Example 38, 4-(5-(1H-Benzo[d]imidazol-1-ylamino)-2-cyanopyridin-3-yl)phenyl sulfamate] | 2.7 nM | 19.1 nM |
| CN(c1cnc(C#N)c(-c2ccc(OS(N)(=O)=O)cc2)c1)n1cnc2ccccc21 [Example 39, 4-(5-((1H-Benzo[d]imidazol-1-yl)(methyl)amino)-2-cyanopyridin-3-yl)phenyl sulfamate] | 1.5 nM | > 60 nM |
| N#Cc1ncc(Nn2cnc3cccnc32)nc1-c1ccc(OS(N)(=O)=O)cc1 [Example 40, 4-(6-(3H-Imidazo[4,5-b]pyridin-3-ylamino)-3-cyanopyrazin-2-yl)phenyl sulfamate] | > 60 nM | 18.8 nM |
| N#Cc1ccc(Nn2cnc3ccccc32)cc1-c1ccc(OS(N)(=O)=O)cn1 [Example 41, 6-(5-(1H-Benzo[d]imidazol-1-ylamino)-2-cyanophenyl)pyridin-3-yl sulfamate] | 2 nM | 9.3 nM |
| N#Cc1ncc(Nn2cnc3cccnc32)cc1-c1ccc(OS(N)(=O)=O)cc1 [Example 43, 4-(5-(3H-Imidazo[4,5-b]pyridin-3-ylamino)-2-cyanopyridin-3-yl)phenyl sulfamate] | 11.8 nM | > 60 nM |
| CN(c1cnc(C#N)c(-c2ccc(OS(N)(=O)=O)cc2)n1)n1cnc2cccnc21 [Example 44, 4-(6-((3H-Imidazo[4,5-b]pyridin-3-yl)(methyl)amino)-3-cyanopyrazin-2-yl)phenyl sulfamate] | 5.8 nM | > 60 nM |
| CN(c1cnc(C#N)c(-c2ccc(OS(N)(=O)=O)cc2)c1)n1cnc2cccnc21 [Example 45, 4-(5-((3H-Imidazo[4,5-b]pyridin-3-yl)(methyl)amino)-2-cyanopyridin-3-yl)phenyl sulfamate] | 2.1 nM | > 60 nM |
| N#Cc1ccc(Nn2cnc3cccnc32)nc1-c1ccc(OS(N)(=O)=O)cc1 [Example 46, 4-(6-(3H-Imidazo[4,5-b]pyridin-3-ylamino)-3-cyanopyridin-2-yl)phenyl sulfamate] | 21.7 nM | 39.5 nM |
| N#Cc1cnc(Nn2cnc3cccnc32)nc1-c1ccc(OS(N)(=O)=O)cc1 [Example 47, 4-(2-(3H-Imidazo[4,5-b]pyridin-3-ylamino)-5-cyanopyrimidin-4-yl)phenyl sulfamate] | 56.1 nM | 44.1 nM |
| CN(c1ncc(C#N)c(-c2ccc(OS(N)(=O)=O)cc2)n1)n1cnc2cccnc21 [Example 48, 4-(2-((3H-Imidazo[4,5-b]pyridin-3-yl)(methyl)amino)-5-cyanopyrimidin-4-yl)phenyl sulfamate] | 5.8 nM | > 60 nM |
| CN(c1ccc(C#N)c(-c2ccc(OS(N)(=O)=O)cc2)n1)n1cnc2cccnc21 [Example 49, 4-(6-((3H-Imidazo[4,5-b]pyridin-3-yl)(methyl)amino)-3-cyanopyridin-2-yl)phenyl sulfamate] | 3.7 nM | > 60 nM |

Now from value to molecule:

| IC50 (aromatase) | IC50 (steroid sulfatase) | Structure (SMILES) |
| --- | --- | --- |
| 1.2 nM | 26.4 nM | CSc1cc(-c2cc(Cn3cnc4ccccc43)ccc2C#N)ccc1OS(N)(=O)=O [Example 18, 5′-((1H-Benzo[d]imidazol-1-yl)methyl)-2′-cyano-3-(methylthio)-[1,1′-biphenyl]-4-yl sulfamate] |
| 2.2 nM | > 60 nM | CSc1ccc(-c2cc(Cn3cnc4ccccc43)ccc2C#N)cc1OS(N)(=O)=O [Example 19, 5′-((1H-benzo[d]imidazol-1-yl)methyl)-2′-cyano-4-(methylthio)-[1,1′-biphenyl]-3-yl sulfamate] |
| 2.9 nM | 52.3 nM | CSc1cc(-c2cc(Nn3cnc4ccccc43)ccc2C#N)ccc1OS(N)(=O)=O [Example 20, 5′-((1H-Benzo[d]imidazol-1-yl)amino)-2′-cyano-3-(methylthio)-[1,1′-biphenyl]-4-yl sulfamate] |
| 2.2 nM | > 60 nM | CSc1ccc(-c2cc(Nn3cnc4ccccc43)ccc2C#N)cc1OS(N)(=O)=O [Example 21, 5′-((1H-Benzo[d]imidazol-1-yl)amino)-2′-cyano-4-(methylthio)-[1,1′-biphenyl]-3-yl sulfamate] |
| 4.6 nM | 17.8 nM | CSc1cc(-c2cc(N(C)n3cnc4ccccc43)ccc2C#N)ccc1OS(N)(=O)=O [Example 27, 5′-((1H-Benzo[d]imidazol-1-yl)(methyl)amino)-2′-cyano-3-(methylthio)-[1,1′-biphenyl]-4-yl sulfamate] |
| 5.8 nM | > 60 nM | CSc1ccc(-c2cc(N(C)n3cnc4ccccc43)ccc2C#N)cc1OS(N)(=O)=O [Example 28, 5′-((1H-Benzo[d]imidazol-1-yl)(methyl)amino)-2′-cyano-4-(methylthio)-[1,1′-biphenyl]-3-yl sulfamate] |
| 5.9 nM | 7.2 nM | N#Cc1ccc(Cn2cnc3ccccc32)cc1-c1ccc(OS(N)(=O)=O)cn1 [Example 30, 6-(5-((1H-Benzo[d]imidazol-1-yl)methyl)-2-cyanophenyl)pyridin-3-yl sulfamate] |
| 9 nM | 17.6 nM | N#Cc1ccc(Cn2cnc3cccnc32)cc1-c1ccc(OS(N)(=O)=O)cn1 [Example 33, 6-(5-((3H-Imidazo[4,5-b]pyridin-3-yl)methyl)-2-cyanophenyl)pyridin-3-yl sulfamate] |
| 2.4 nM | 41.8 nM | CN(c1ccc(C#N)c(-c2ccc(OS(N)(=O)=O)cn2)c1)n1cnc2ccccc21 [Example 37, 6-(5-((1H-Benzo[d]imidazol-1-yl)(methyl)amino)-2-cyanophenyl)pyridin-3-yl sulfamate] |
| 41.9 nM | > 60 nM | N#Cc1ccc(Cn2cnc3ccccc32)nc1-c1ccc(OS(N)(=O)=O)cn1 [Example 42, 6′-((1H-Benzo[d]imidazol-1-yl)methyl)-3′-cyano-[2,2′-bipyridin]-5-yl sulfamate] |
